From patent US9029355B2, “Solid ganaxolone compositions and methods for the making and use thereof” (Marinus Pharmaceuticals, priority 2005, dated 2015)

Test: Solubility of ganaxolone using water soluble beta cyclodextrins
Type: physicochemical
Settings: water soluble beta cyclodextrins (beta-sulfobutyl-cyclodextrin, 2-hydroxypropylbetacyclodextrin)
Source text: Ganaxolone formulations suitable for intramuscular, subcutaneous, or intravenous injection may comprise physiologically acceptable sterile aqueous or non-aqueous solutions, dispersions, suspensions or emulsions, and sterile powders for reconstitution into sterile injectable solutions or dispersions. Examples of suitable aqueous and non-aqueous carriers, diluents, solvents, or vehicles including water, ethanol, polyols (propylene glycol, polyethylene-glycol, glycerol, cremophor and the like), suitable mixtures thereof, vegetable oils (such as olive oil) and injectable organic esters such as ethyl oleate. Additionally, Ganaxolone can be dissolved at concentrations of >1 mg/ml using water soluble beta cyclodextrins (e.g. beta-sulfobutyl-cyclodextrin and 2-hydroxypropylbetacyclodextrin. Proper fluidity can be maintained, for example, by the use of a coating such as lecithin, by the maintenance of the required particle size in the case of dispersions, and by the use of surfactants. Ganaxolone formulations suitable for subcutaneous injection may also contain additives such as preserving, wetting, emulsifying, and dispensing agents. Prevention of the growth of microorganisms can be ensured by various antibacterial and antifungal agents, such as parabens, benzoic acid, benzyl alcohol, chlorobutanol, phenol, sorbic acid, and the like. […]

CC(=O)[C@H]1CC[C@H]2[C@@H]3CC[C@H]4C[C@](C)(O)CC[C@]4(C)[C@H]3CC[C@]12C [Ganaxolone, 3α-hydroxy-3β-methyl-5α-pregnan-20-one] gave a concentration dissolved of over 1000 µg/mL.
